Laboratory results reported in patent US20150329515A1, “COMPOSITION AND METHOD FOR TREATING OR PREVENTING INFLUENZA VIRUS INFECTION” (National Defense Medical Center, priority 2014, published 2015).

What was measured:
in vitro = conditions: dog
[1] = tested on: influenza A/New York/469/2004-like flu (H3N2) virus; assay: microbe, parasite or virus in culture; conditions: H3N2, MDCK, read-out: EC50 (μM), H3N2
[2] = tested on: influenza A/New York/469/2004-like flu (H3N2) virus; assay: in vitro; conditions: dog
[3] = CC50 (μM), Table 4 (H3N2 series), MDCK cells

`O=c1cc(-c2ccccc2Br)oc2cc(O)c(O)c(O)c12` [Compound 6a, 2-(2-Bromophenyl)-5,6,7-trihydroxy-4H-chromen-4-one] showed a melting point of 249 to 251 °C, a CC50 (in vitro; [3]) of over 300 µM and an EC50 [1] of 71.8 µM. The selectivity ratio at 24 h [2] was over 4.2.
Molecule `CCOC(=O)C1=C[C@@H](OC(CC)CC)[C@H](NC(C)=O)[C@@H](N)C1` [oseltamivir, reference compound] has a CC50 (in vitro) of 320 µM.
For `COc1c(O)cc2oc(-c3ccc(Br)cc3)cc(=O)c2c1O` [Compound 5c, 2-(4-Bromophenyl)-5,7-dihydroxy-6-methoxy-4H-chromen-4-one], the melting point was 275 to 276 °C, the CC50 (in vitro; [3]) was over 300 µM and the EC50 [1] was 34.5 µM. It also gave a selectivity ratio at 24 h [2] of over 8.7.
In the case of `O=c1cc(-c2ccc(Br)cc2)oc2cc(O)c(O)c(O)c12` [Compound 6c, 2-(4-Bromophenyl)-5,6,7-trihydroxy-4H-chromen-4-one], the CC50 (in vitro; [3]) is reported as over 300 µM, the EC50 [1] is reported as 35.9 µM and the selectivity ratio at 24 h [2] is reported as over 8.4.
In the case of `O=c1cc(-c2ccccc2)oc2cc(O)c(O)c(O)c12` [Baicalein, reference compound], the CC50 (in vitro; [3]) is reported as over 300 µM, the EC50 [1] is reported as 92.3 µM and the selectivity ratio at 24 h [2] is reported as over 3.3.
`COc1cc2oc(-c3ccccc3Br)cc(=O)c2c(OC)c1OC` [Compound 2k, 2-(2-Bromophenyl)-5,6,7-trimethoxy-4H-chromen-4-one] showed a melting point of 122 to 123 °C, a CC50 (in vitro; [3]) of 128 µM and an EC50 [1] of 64.1 µM. The selectivity ratio at 24 h [2] was 2.
For `COc1c(O)cc2oc(-c3ccccc3Br)cc(=O)c2c1O` [Compound 5a, 2-(2-Bromophenyl)-5,7-dihydroxy-6-methoxy-4H-chromen-4-one], the CC50 (in vitro; [3]) was over 300 µM, the EC50 [1] was 17.3 µM and the selectivity ratio at 24 h [2] was over 17.3.
Molecule `COc1cc2oc(-c3cccc(Br)c3)cc(=O)c2c(OC)c1OC` [Compound 2l, 2-(3-Bromophenyl)-5,6,7-trimethoxy-4H-chromen-4-one] has a melting point of 190 to 191 °C, a CC50 (in vitro; [3]) of 64.1 µM and an EC50 [1] of 128 µM. For the same molecule, the selectivity ratio at 24 h [2] was 0.5.
`COc1cc2oc(-c3ccccc3Br)cc(=O)c2c(O)c1OC` [Compound 4a, 2-(2-Bromophenyl)-5-hydroxy-6,7-dimethoxy-4H-chromen-4-one] gave a melting point of 221 to 222 °C, a CC50 (in vitro; [3]) of 200 µM and an EC50 [1] of 133 µM. It also gave a selectivity ratio at 24 h [2] of 1.5.
With `COc1cc2oc(-c3ccc(Br)cc3)cc(=O)c2c(OC)c1OC` [Compound 2m, 2-(4-Bromophenyl)-5,6,7-trimethoxy-4H-chromen-4-one] the melting point was 165 to 166 °C and the CC50 (in vitro; [3]) was over 300 µM.
`O=c1cc(-c2cccc(Br)c2)oc2cc(O)c(O)c(O)c12` [Compound 6b, 2-(3-Bromophenyl)-5,6,7-trihydroxy-4H-chromen-4-one] gave a melting point of 255 to 256 °C, a CC50 (in vitro; [3]) of over 300 µM and an EC50 [1] of 35.9 µM. It also gave a selectivity ratio at 24 h [2] of over 8.4.
`NC(=O)c1ncn([C@@H]2O[C@H](CO)[C@@H](O)[C@H]2O)n1` [Ribavirin, reference compound] gave a CC50 (in vitro; [3]) of over 300 µM, an EC50 [1] of 25.6 µM and a selectivity ratio at 24 h [2] of over 11.7.
Work on `O=C(O)[C@H]1O[C@@H](Oc2cc3oc(-c4ccccc4)cc(=O)c3c(O)c2O)[C@H](O)[C@@H](O)[C@@H]1O` [Baicalin, reference compound] yielded a CC50 (in vitro; [3]) of over 300 µM, an EC50 [1] of 104 µM and a selectivity ratio at 24 h [2] of over 2.9.
For `COc1cc2oc(-c3ccc(Br)cc3)cc(=O)c2c(O)c1OC` [Compound 4c, 2-(4-Bromophenyl)-5-hydroxy-6,7-dimethoxy-4H-chromen-4-one], the melting point was 206 to 208 °C and the CC50 (in vitro; [3]) was over 300 µM.
Molecule `COc1cc2oc(-c3cccc(Br)c3)cc(=O)c2c(O)c1OC` [Compound 4b, 2-(3-Bromophenyl)-5-hydroxy-6,7-dimethoxy-4H-chromen-4-one] has a melting point of 188 to 189 °C, a CC50 (in vitro; [3]) of 66.5 µM and an EC50 [1] of 133 µM. It also gave a selectivity ratio at 24 h [2] of 0.5.
With `COc1c(O)cc2oc(-c3cccc(Br)c3)cc(=O)c2c1O` [Compound 5b, 2-(3-Bromophenyl)-5,7-dihydroxy-6-methoxy-4H-chromen-4-one] the CC50 (in vitro; [3]) was over 300 µM, the EC50 [1] was 17.3 µM and the selectivity ratio at 24 h [2] was over 17.3.
